Measurements published in patent US20240400529A1, “COMPOSITIONS AND METHODS FOR THE PREVENTION AND/OR TREATMENT OF MITOCHONDRIAL DISEASE, INCLUDING FRIEDREICH'S ATAXIA” (Stealth BioTherapeutics Inc., priority 2019, published 2024).
“Also recorded” adds a separate entry of the source.

Experiments:
Nrf-2 responsive genes = assay: Nrf-2 Activation Assay (Nrf-2 Assay); assay type: cell-based, human; settings: FIG. 7; 1 μM, 24 hours
Procedure: This assay was developed internally and was designed to determine if the novel test compounds disclosed herein active Nrf-2 and thereby promote resolution of inflammation by the mechanism believed to be responsible for the activity of omaveloxolone.
Briefly, GM03665 Eriedreich Ataxia patient fibroblasts were grown in 12 Well Plates (TC Cell+F) (Sarstedt, Nümbrecht Germany), at a density of 12×10^4 cells/per well in DMEM/F12 (Gibco, ThermoFisher Scientific, Waltham, MA, USA) cell media supplemented with 10% FBS and 1% Pen/Strep. Cells were left to rest overnight at 37° C. in a humidified atmosphere with 5% CO2 to allow attachment of the cells to the culture plate. Before continuing assay visual inspection of each well was done by light microscopy to detect any possible bacterial and fungal contamination. […] After incubation, cell media was removed and total RNA from the cells was isolated using E.Z.N.A.® Total RNA Kit I (Omega Bio-tek, Norcross, Georgia, USA) spin columns, and first-strand cDNA synthesis was carried out using a High Capacity cDNA Reverse Transcription Kit (Applied Biosystems™, Foster City, CA) following the manufacturer's instructions. qPCR analysis of gene expression was performed by mixing SYBR® Green Master Mix (Applied Biosystems™) with synthesized cDNA and forward and reverse primers. […] (60 cycles), and 95° C. for 60 seconds, followed by melt curve analysis at 72-95° C., 0.3° C./sec. The relative expression levels for each gene were calculated with the ΔΔCt method and normalized to the expression of REEP5 and SNRPD3 genes.

[1] = system: frataxin deficient fibroblasts (Friedreich's ataxia patient, GM03665); assay type: cell-based
[2] = system: HepG2 human hepatocarcinoma cells; assay: Rotenone ATP Assay (Complex I by-pass); assay type: cell-based; settings: summary statements also cover the Oxygraph assay
Procedure: This assay has been adapted from Haefeli R H, Erb M, Gemperli A C, Robay D, Courdier Fruh I, et al. (2011) NQO1-Dependent Redox Cycling of Idebenone: Effects on Cellular Redox Potential and Energy Levels. PLOS ONE 6 (3): e17963. HepG2 human hepatocarcinoma cells were co-incubated with the electron transport chain Complex I toxin rotenone+/−compounds of interest and the corresponding effect on ATP synthesis was measured with a bioluminescent substrate.
In brief, HepG2 cells were plated at 25,000 cells per well in low glucose (1 gram/Liter) DMEM medium+10% fetal calf serum and incubated for 24 hours. The following day, the media was decanted and subsequently replaced with glucose free/serum free DMEM which has been supplemented with 50 micromolar rotenone and compound of interest. Serial dilutions of compound were prepared in 3× dilutions beginning at 25 micromolar. The cells were incubated for 60 minutes in a humidified tissue culture incubator. Following incubation, ATP levels were quantified via bioluminescent assay (Promega […] Glo Assay kit) and readings were captured on a standard microplate reader.
ATP bioluminescence is plotted versus the log of compound of interest and data were used to generate EC50 values. Curve fitting was performed using a sigmoidal dose response curve fit function (GraphPad Prism software).
Robustness of curve fit was assessed as a quality control measure, with an R squared value of at least 0.80 being required for a successful curve fit. Compounds of interest showing an increase in ATP bioluminescence relative to vehicle control were verified in an independent biological replicate of n=3 technical replicates per dose.
This assay is a direct measure of the ability of compounds of interest to restore ATP production under conditions of inhibition of Complex I of the mitochondrial electron transport chain. As the majority of ATP produced via the electron transport chain is thought to derive from Complex I activity, significant impairment in Complex I function has dire biological consequences. Of note, Complex I mutations are thought to drive pathophysiology in multiple mitochondrial diseases, including Leigh syndrome and Leber's Hereditary Optic Neuropathy (LHON), while diminished Complex I activity and the resultant attenuation of ATP production has been shown in neurodegenerative diseases, including Friedreich's Ataxia, Parkinson's Disease and Huntington's Disease.

lipoxygenase-15 enzyme = lipoxygenase-15 enzyme (Glycine max (Soybean) (Glycine hispida), UniProt P08170); assay: Lipoxygenase-15 Assay (LO-15 Assay); assay type: biochemical; settings: reduced forms tested
intact HepG2 cells = assay: Rotenone Oxygraph Assay (high-resolution respirometry); assay type: cell-based, human; settings: 1 μM rotenone, 10 μM compound
Procedure: The Oxygraph-2k (O2k, OROBOROS INSTRUMENTS, Austria) was used for measurements of respiration of intact cells. The respirometry was performed in Dulbecco's Modified Eagle Medium (DMEM) high glucose without supplements. All experiments were performed at 37° C.
HepG2 cells (ATCC collection code HB-8065™) were cultured in 10 cm^2 culture dishes in DMEM high glucose medium supplemented with 10% fetal bovine serum (FBS) and 100 units/mL penicillin and 100 μg/mL streptomycin until approximately 90% confluence was reached. Immediately prior to performing the respirometric assay, the cells were washed with media without FBS, trypsinized and resuspended in DMEM high glucose without FBS.
The final concentration of intact cells in the O2k-chamber was 0.5.10^6/mL. After stabilization of respiration, the Complex I inhibitor, rotenone, at 1 μM final concentration was added to inhibit electron flux via Complex I. Then, compound to be tested was added at 10 μM final concentration, and the change in respiration rate of intact cells was monitored.

[3] = system: GM03665 cells (fibroblasts from a subject with Friedreich's ataxia); assay: RSL3 Toxicity Assay (RSL3 Assay); assay type: cell-based, human
Procedure: In brief, GM03665 cells (Coriell Institute) were seeded in 96-well plates (Sarstedt) in DMEM cell culture media containing 10% Fetal Bovine serum and 1% Penicillin-Streptomycin (Pen-Strep) antibiotic mix at the amount of 2×10^4/mL (100 μL or 2×10^3 cells per well). Cells were left to rest overnight at 37° C. in a humidified atmosphere with 5% CO2 to allow attachment of the cells to the culture plate. Test compounds were prepared as DMSO stocks (10 mM) and were serially diluted in cell culture media to obtain 2× working solutions. Cell media was discarded and replaced by 50 μL of test compound solutions or cell media with vehicle for control wells. Within 15 minutes, 2× working solution (4 μM) of 1S,3R-RSL3 (CAS #1219810-16-8, Sigma-Aldrich) (diluted from 5 mM DMSO stock in cell culture media) was added. Final reaction volume was 100 μL and final DMSO concentration in reaction was kept below 0.2% (v/v) and equal in all wells. Final RSL3 concentration was 2 μM and test compound final concentrations in reaction were up to 1000 nM. After 24 hours of incubation cell viability was assessed by MTT test. MTT (Sigma-Aldrich) solution 1 mg/mL in 1×PBS (pH=7,4) was prepared 1 hour before the assay and filtered through Filtropur S 0.2 filters (Sarstedt). Cell media with test compounds was discarded and 100 μL of MTT solution was added to cells. The plates were incubated for 2 hours at +37° C. Thereafter, the MTT solution was removed and 100 μL of isopropanol was added to dissolve sediment. Absorption at 570 and 650 nm was measured using Hidex Sense microplate reader.

- lipoxygenase-15 inhibition, in words (lipoxygenase-15 enzyme): effective inhibitors
Structure (SMILES): CC1=C(C)C(=O)C(CC[C@](C)(O)CCCCCCCCC(F)(F)F)=C(C)C1=O [Compound N, (R)-2,3,5-trimethyl-6-(12,12,12-trifluoro-3-hydroxy-3-methyldodecyl)cyclo-hexa-2,5-diene-1,4-dione]
- activation of Nrf-2 responsive genes / pathway, in words (Nrf-2 responsive genes): do not activate
- protection from BSO induced cell death / ferroptosis, in words [1]: possess both activities; also recorded: able to prevent ferroptotic cell death; also recorded: active
- Complex I by-pass activity / restoring ATP production, in words [2]: possess both activities
- Rotenone Oxygraph Assay % Increase (Table 7) (intact HepG2 cells): 44.8 +/− 10.3%
- activity in the RSL3 Assay, in words [3]: active; also recorded: able to prevent ferroptotic cell death
